Experimental data published in patent US6436948B1, “Method for the treatment of psoriasis and genital warts” (priority 1995, dated 2002).
“Also recorded” adds a separate entry of the source.

Assays:
DU-145 = assay: NCI cancer screening program, SRB: DU-145; type: cell-based; settings: Prostate Cancer, PG +50, 48 hours
A549/ATCC = assay: NCI cancer screening program, SRB: A549/ATCC; settings: Non-Small Cell Lung Cancer, PG +50, 48 hours
Description: (§5) GI50, TGI and LC50 are values representing the concentrations at which the PG (percent of growth inhibition), defined below, is +50, 0, and −50, respectively.
(§6) If (Mean ODtest−Mean ODtzero)≧0. then PG=100×(Mean ODtest−Mean ODtzero)/(Mean ODctrl−Mean ODtzero)
(§7) If (Mean ODtest−Mean ODtzero)<0. then PG=100×(Mean ODtest−Mean ODtzero)/(Mean ODtzero)
(§8) Mean ODtzero=The average of optical density measurements of SRB-derived color just before exposure of cells to the test compound.
(§9) Mean ODtestThe average of optical density measurements of SRB-derived color after 48 hours exposure of cells to the test compound.
(§10) Mean ODctrl=The average of optical density measurements of SRB-derived color after 48 hours with no exposure of cells to the test compound.
(§11) If these response parameters could not be obtained by interpolation, the value given for each response parameter is the highest concentration tested and is preceded by a “>” sign.

COLO205 = assay: NCI cancer screening program, SRB: COLO205; type: cell-based; settings: Colon Cancer
HepG2 tumors = assay: HepG2 xenograft in NCr nude mice; type: in vivo, human; settings: for Effect on HepG2 tumors in words: 25 mg/kg twice a day on days 0 through 4, NCr nude mice; for Net cell kill (log 10): HepG2 tumors, 25 mg/kg twice a day days 0 through 4
Method: (§1) FIG. 5 is a graph of the inhibition of human tumor growth by […]. Three to six week old NCr nude mice were inoculated subcutaneously in each flank with 2×10^6 HepG2 or DU-145 cells. Treatment was started when the tumors were in an advanced stage of growth. Drugs were administered twice a day on days 0 through 4 and tumor sizes were measured on the indicated days. […] Each data point represents the means±SD of 10 tumors in graph A and six tumors in graph B.
(§2) Three to six-week-old NCr nude mice (Taconic Immunodeficient Mice and Rats) were inoculated s.c. in each flank with 2×10^6HepG2 or DU-145 cells and tumors were allowed to grow. Treatment was started when the tumors were 100-250mg as determined by caliper measurement and calculated according to the formula:
(§3) Tumor Weight(mg)=length(mm)×width(mm^2)÷2
(§4) Drugs were given at the indicated doses on days 0 through 4 and tumor sizes were measured every several days. The tumor growth curves were generated as described in Bell, et al., Cancer(phila.) 36:2437-2440 (1975), and are illustrated in FIGS. 5(a) and 5(b).

SN12C = assay: NCI cancer screening program, SRB: SN12C; type: cell-based; settings: Renal Cancer, PG +50, 48 hours
MCF7/ADR-RES = assay: NCI cancer screening program, SRB: MCF7/ADR-RES; type: cell-based; settings: Breast Cancer
CAKI-1 = assay: NCI cancer screening program, SRB: CAKI-1; type: cell-based; settings: Renal Cancer, PG +50, 48 hours
SK-MEL-28 = assay: NCI cancer screening program, SRB: SK-MEL-28; type: cell-based; settings: Melanoma, PG +50, 48 hours
NCr nude mice = type: in vivo
Method: as §4
Toxicity was evaluated by changes in body weight.

[1] = test system: DU-145 prostate carcinoma line; assay: In vitro cytotoxicity, methylene blue assay / cell count: DU-145; type: cell-based; settings: Homo sapiens, read-out: ID50 (the source's name)
cytidine deaminase = cytidine deaminase (Homo sapiens, UniProt P32320); assay: Enzymatic studies of deamination
Chain of cytidine deaminase (P32320 whole entry, species assumed): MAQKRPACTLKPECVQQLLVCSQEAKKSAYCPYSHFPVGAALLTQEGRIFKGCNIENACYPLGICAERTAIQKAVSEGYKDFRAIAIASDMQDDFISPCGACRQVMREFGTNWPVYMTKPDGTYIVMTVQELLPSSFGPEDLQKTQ

UACC-257 = assay: NCI cancer screening program, SRB: UACC-257; type: cell-based; settings: Melanoma, PG +50, 48 hours
[2] = biological target: human deoxycytidine kinase (Homo sapiens, UniProt P27707); assay: In vitro enzymatic studies of phosphorylation; type: biochemical
Chain of human deoxycytidine kinase (P27707 whole entry): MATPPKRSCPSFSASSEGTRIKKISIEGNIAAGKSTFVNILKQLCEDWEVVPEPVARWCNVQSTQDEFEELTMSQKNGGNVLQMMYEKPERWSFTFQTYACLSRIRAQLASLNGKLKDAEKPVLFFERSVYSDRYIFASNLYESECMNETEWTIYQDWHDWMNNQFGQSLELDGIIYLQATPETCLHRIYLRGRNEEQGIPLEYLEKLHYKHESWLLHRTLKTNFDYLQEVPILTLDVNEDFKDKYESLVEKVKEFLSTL

HOP-62 = assay: NCI cancer screening program, SRB: HOP-62; type: cell-based; settings: Non-Small Cell Lung Cancer, PG +50, 48 hours
CEM cells = assay: In vitro cytotoxicity, methylene blue assay / cell count: CEM; type: cell-based; settings: Homo sapiens, CCRF-CEM, three generations, mean ± standard deviation of five experiments, read-out: ID50 (the source's name)
SNB-19 = assay: NCI cancer screening program, SRB: SNB-19; type: cell-based; settings: CNS Cancer, PG +50, 48 hours
HT29 = assay: NCI cancer screening program, SRB: HT29; type: cell-based; settings: Colon Cancer, PG +50, 48 hours
RPMI-2.26 = assay: NCI cancer screening program, SRB: RPMI-2.26; type: cell-based; settings: Leukemia, PG +50, 48 hours
BKVX = settings: Non-Small Cell Lung Cancer, PG +50, 48 hours
Description: as §5, §6, §7, §8, §9, §10, §11

SR = assay: NCI cancer screening program, SRB: SR; type: cell-based; settings: Leukemia, PG +50, 48 hours
UO-31 = assay: NCI cancer screening program, SRB: UO-31; type: cell-based; settings: Renal Cancer, PG +50, 48 hours
MCF7 = assay: NCI cancer screening program, SRB: MCF7; type: cell-based; settings: Breast Cancer, PG +50, 48 hours
OVCAR-5 = assay: NCI cancer screening program, SRB: OVCAR-5; type: cell-based; settings: Ovarian Cancer, PG +50, 48 hours
MALME-3M = assay: NCI cancer screening program, SRB: MALME-3M; type: cell-based; settings: Melanoma, PG +50, 48 hours
SP-268 = settings: CNS Cancer, PG +50, 48 hours
Description: as §5, §6, §7, §8, §9, §10, §11

T-47D = assay: NCI cancer screening program, SRB: T-47D; type: cell-based; settings: Breast Cancer, PG +50, 48 hours
DU-145 tumors = assay: DU-145 xenograft in NCr nude mice; type: in vivo, human
Method: as §1, §2, §3, §4

LOX D6VI = assay: NCI cancer screening program, SRB: LOX D6VI; type: cell-based; settings: Melanoma
Colon 38 tumor cells = assay: In vivo treatment of Colon 38 tumor cells implanted sc in BDF1 mice; design: species or system mouse; settings: 25 mg/kg/dose twice daily for five days
Description: The graph plots tumor growth as a percentage of original tumor weight vs. days. Treatment of the mice occurred in days 1, 2, 3, 4 and 5.
Colon 38 tumor cells were implanted sc to BDF1 mice.

NCI-H460 = assay: NCI cancer screening program, SRB: NCI-H460; type: cell-based; settings: Non-Small Cell Lung Cancer, PG +50, 48 hours
785-4 = settings: Renal Cancer, PG +50, 48 hours
Description: as §5, §6, §7, §8, §9, §10, §11

In the case of `Nc1ccn([C@@H]2CO[C@H](CO)O2)c(=O)n1` [(−)-OddC, (−)-(2S,4S)-1-(2-hydroxymethyl-1,3-dioxolan-4-yl)cytosine], the LOG10GI50 (DU-145) is reported as −6.97, the Log10GI50 (A549/ATCC) is reported as −6.01 and the Log10TGI (COLO205; PG 0, 48 hours) is reported as greater than −4.00. The Log10GI50 (COLO205; PG +50, 48 hours) was −4.03, the “Effect on HepG2 tumors in words” value (HepG2 tumors) was “active” and the “Effect on HepG2 tumors in words” value (HepG2 tumors; listed as (L)-OddC) was “effective”. For the same compound, the “Net cell kill (log 10)” value (HepG2 tumors; i.p. treatment) was 0.67, the “Net cell kill (log 10)” value (HepG2 tumors; oral treatment) was 0.87 and the LOG10GI50 (SN12C) was −6.27. For the same compound, the LOG10TGI (MCF7/ADR-RES; PG 0, 48 hours) was greater than −4.00, the LOG10GI50 (MCF7/ADR-RES; PG +50, 48 hours) was −4.97 and the LOG10GI50 (CAKI-1) was −6.65. The Log10GI50 (SK-MEL-28) was −4.31, the “Toxicity as indicated by weight loss of the animals” value (NCr nude mice; doses given, 25 mg/kg twice a day days 0 through 4) was “equally toxic” and the Maximum tolerated dosage (NCr nude mice; twice a day for five continuous days of treatment, preliminary toxicity experiments) was 25 mg/kg. For the same compound, the IC50 [1] was 24 ± 20 nM, the “Substrate for deaminase / deamination by cytidine deaminase” value (cytidine deaminase) was “not a substrate; also recorded: not deaminated” and the LOG10GI50 (UACC-257) was greater than −4.00. For the same compound, the “Phosphorylation by human deoxycytidine kinase” value [2] was “can be phosphorylated”, the Log10GI50 (HOP-62) was −6.23 and the IC50 (CEM cells) was 25 ± 30 nM. It also gave a Log10GI50 (SNB-19) of −5.71, a Log10GI50 (HT29) greater than −4.00 and a Log10GI50 (RPMI-2.26) of −4.03. It also gave a Log10GI50 (BKVX) greater than −4.00, a Log10GI50 (SR) of −5.95 and an LOG10GI50 (UO-31) of −5.60. For the same compound, the LOG10GI50 (MCF7) was −5.95, the LOG10GI50 (OVCAR-5) was −4.41 and the Log10GI50 (MALME-3M) was −4.51. For the same compound, the Log10GI50 (SP-268) was −5.18, the LOG10GI50 (T-47D) was greater than −4.00 and the “Effect on DU-145 tumors in words” value (DU-145 tumors; 25 mg/kg twice a day on days 0 through 4, NCr nude mice) was “effective”. For the same compound, the “DU-145 tumors regressing completely” value (DU-145 tumors; by day 15) was “half of them regressing completely”, the Log10TGI (LOX D6VI; PG 0, 48 hours) was greater than −4.00 and the Log10GI50 (LOX D6VI; PG +50, 48 hours) was −6.39. The “Colon tumor cell growth” value (Colon 38 tumor cells) was “retarded”, the Log10GI50 (NCI-H460) was −4.32 and the LOG10GI50 (785-4) was −5.36.
